Reference: US4226863A, “7-Methoxy cephalosporins” (Sumitomo Chemical Company, Limited, priority 1975, dated 1980)
In brackets after ≈: the same amount, converted by molar mass.

Key:
Assay type in all cases: cell-based
[1] = tested on: Serratia No. 115; test: antimicrobial activity, minimum inhibitory concentration, Serratia No. 115
Procedure: (§1) The antimicrobial activities of the compounds prepared in the previous Examples were determined in a usual manner and the minimum inhibitory concentrations (in terms of μg/ml) are set forth in the Table below.

[2] = tested on: Escherichia coli NIHJ; test: antimicrobial activity, minimum inhibitory concentration, Escherichia coli NIHJ
[3] = tested on: Enterobacter aerogenes No. 101; test: antimicrobial activity, minimum inhibitory concentration, Enterobacter aerogenes No. 101; conditions: Klebsiella aerogenes
Procedure: as §1

[4] = tested on: Pseudomonas aeruginosa IID 5142; test: antimicrobial activity, minimum inhibitory concentration, Pseudomonas aeruginosa IID 5142; conditions: IID5142
Procedure: as §1

[5] = tested on: Proteus vulgaris HX 19; test: antimicrobial activity, minimum inhibitory concentration, Proteus vulgaris HX 19; conditions: HX19
Procedure: as §1

With `CO[C@@]1(NC(=O)[C@H](NC(=O)c2cnc3cccnc3c2O)c2ccc(O)cc2)C(=O)N2C(C(=O)O)=C(CSc3cnn[nH]3)CS[C@@H]21` [Example 3, 3-[(Triazol-5-yl)thiomethyl]-7α-methoxy-7β-[D-2-(4-hydroxy-1,5-naphthyridine-3-carbonamido)-2-(p-hydroxyphenyl)acetamido]-3-cephem-4-carboxylic Acid] the MIC [1] was 25 µg/mL (≈ 37.6 µM), the MIC [2] was 3.13 µg/mL (≈ 4.71 µM) and the MIC [3] was 6.25 µg/mL (≈ 9.4 µM). The MIC [4] was 3.13 µg/mL (≈ 4.71 µM) and the MIC [5] was 0.78 µg/mL (≈ 1.17 µM).

Compound `CO[C@@]1(NC(=O)C(NC(=O)c2cnc3nc(N4CCCC4)cnc3c2O)c2ccc(O)cc2)C(=O)N2C(C(=O)O)=C(CSc3n[nH]c(=S)s3)CS[C@@H]21` (stereo partly shown) [Example 26] has an MIC [1] of 12.5 µg/mL (≈ 15.9 µM), an MIC [2] of 6.25 µg/mL (≈ 7.97 µM) and an MIC [3] of 12.5 µg/mL (≈ 15.9 µM). It also gave an MIC [4] of 6.25 µg/mL (≈ 7.97 µM) and an MIC [5] of 0.39 µg/mL (≈ 0.498 µM).

For `CO[C@@]1(NC(=O)[C@H](NC(=O)c2cnc3cccnc3c2O)c2ccc(O)cc2)C(=O)N2C(C(=O)O)=C(CSc3nnnn3C)CS[C@@H]21` [Example 2, 3-[(1-Methyltetrazol-5-yl)thiomethyl]-7α-methoxy-7β-[D-2-(4-hydroxy-1,5-naphthyridine-3-carbonamido)-2-(p-hydroxyphenyl)acetamido]-3-cephem-4-carboxylic Acid], the MIC [1] was 3.13 µg/mL (≈ 4.6 µM), the MIC [2] was 0.78 µg/mL (≈ 1.15 µM) and the MIC [3] was 3.13 µg/mL (≈ 4.6 µM). It also gave an MIC [4] of 1.56 µg/mL (≈ 2.3 µM) and an MIC [5] of 0.2 µg/mL (≈ 0.294 µM).

`COC1(NC(=O)C(NC(=O)c2cnc3ccncc3c2O)c2ccc(O)cc2)C(=O)N2C(C(=O)O)=C(CSc3nnnn3C)CSC21` (stereo not shown) [Example 38] gave an MIC [1] of 25 µg/mL (≈ 36.8 µM), an MIC [2] of 12.5 µg/mL (≈ 18.4 µM) and an MIC [3] of 12.5 µg/mL (≈ 18.4 µM). The MIC [4] was 12.5 µg/mL (≈ 18.4 µM) and the MIC [5] was 0.78 µg/mL (≈ 1.15 µM).

`COC1(NC(=O)C(NC(=O)c2nnc(O)nc2O)c2ccccc2)C(=O)N2C(C(=O)O)=C(COC(C)=O)CSC21` (stereo not shown) [Example 49] was tested, and the MIC [1] was 100 µg/mL (≈ 174 µM), the MIC [2] was 25 µg/mL (≈ 43.5 µM) and the MIC [3] was 50 µg/mL (≈ 87 µM). It also gave an MIC [4] of 25 µg/mL (≈ 43.5 µM) and an MIC [5] of 1.56 µg/mL (≈ 2.72 µM).

`COc1cc(C(NC(=O)c2cnc3cccnc3c2O)C(=O)NC2(OC)C(=O)N3C(C(=O)O)=C(COC(N)=O)CSC32)ccc1O` (stereo not shown) [Example 39] gave an MIC [1] of 50 µg/mL (≈ 76.4 µM), an MIC [2] of 3.13 µg/mL (≈ 4.78 µM) and an MIC [3] of 12.5 µg/mL (≈ 19.1 µM). It also gave an MIC [4] of 3.13 µg/mL (≈ 4.78 µM) and an MIC [5] of 0.78 µg/mL (≈ 1.19 µM).

`COC1(NC(=O)C(NC(=O)c2nnc(O)nc2O)c2ccc(O)cc2)C(=O)N2C(C(=O)O)=C(COC(N)=O)CSC21` (stereo not shown) [Example 52] was tested, and the MIC [1] was 100 µg/mL (≈ 169 µM), the MIC [2] was 25 µg/mL (≈ 42.3 µM) and the MIC [3] was 50 µg/mL (≈ 84.5 µM). For the same compound, the MIC [4] was 25 µg/mL (≈ 42.3 µM) and the MIC [5] was 1.56 µg/mL (≈ 2.64 µM).

Work on `CO[C@@]1(NC(=O)C(NC(=O)c2cnc3ccc(SC)nc3c2O)c2ccc(O)c(Cl)c2)C(=O)N2C(C(=O)O)=C(CSc3nnc(CO)s3)CS[C@@H]21` (stereo partly shown) [Example 20] yielded an MIC [1] of 6.25 µg/mL (≈ 7.89 µM), an MIC [2] of 3.13 µg/mL (≈ 3.95 µM) and an MIC [3] of 6.25 µg/mL (≈ 7.89 µM). It also gave an MIC [4] of 3.13 µg/mL (≈ 3.95 µM) and an MIC [5] of 0.39 µg/mL (≈ 0.492 µM).

`COC1(NC(=O)C(NC(=O)c2cnccc2O)c2ccc(O)c(O)c2)C(=O)N2C(C(=O)O)=C(COC(N)=O)CSC21` (stereo not shown) [Example 44] showed an MIC [1] of 100 µg/mL (≈ 170 µM), an MIC [2] of 12.5 µg/mL (≈ 21.2 µM) and an MIC [3] of 50 µg/mL (≈ 84.8 µM). It also gave an MIC [4] of 12.5 µg/mL (≈ 21.2 µM) and an MIC [5] of 0.78 µg/mL (≈ 1.32 µM).

For `CO[C@@]1(NC(=O)C(NC(=O)c2ccnnc2O)c2ccc(O)cc2)C(=O)N2C(C(=O)O)=C(CSc3nnc(C)s3)CS[C@@H]21` (stereo partly shown) [Example 13], the MIC [1] was 100 µg/mL (≈ 155 µM), the MIC [2] was 12.5 µg/mL (≈ 19.4 µM) and the MIC [3] was 25 µg/mL (≈ 38.7 µM). It also gave an MIC [4] of 25 µg/mL (≈ 38.7 µM) and an MIC [5] of 0.78 µg/mL (≈ 1.21 µM).

In the case of `COC1(NC(=O)C(NC(=O)c2cnc3cccnc3c2O)c2cc(Cl)c(O)c(Cl)c2)C(=O)N2C(C(=O)O)=C(CSc3nnc(C)s3)CSC21` (stereo not shown) [Example 40], the MIC [1] is reported as 12.5 µg/mL (≈ 16.3 µM), the MIC [2] is reported as 6.25 µg/mL (≈ 8.17 µM) and the MIC [3] is reported as 6.25 µg/mL (≈ 8.17 µM). The MIC [4] was 3.13 µg/mL (≈ 4.09 µM) and the MIC [5] was 0.78 µg/mL (≈ 1.02 µM).

With `COC1(NC(=O)C(NC(=O)c2cnc3cccnc3c2O)c2ccco2)C(=O)N2C(C(=O)O)=C(CSc3nnnn3C)CSC21` (stereo not shown) [Example 35] the MIC [1] was 6.25 µg/mL (≈ 9.56 µM), the MIC [2] was 1.56 µg/mL (≈ 2.39 µM) and the MIC [3] was 3.13 µg/mL (≈ 4.79 µM). The MIC [4] was 3.13 µg/mL (≈ 4.79 µM) and the MIC [5] was 0.39 µg/mL (≈ 0.597 µM).

`COC1(NC(=O)C(NC(=O)c2cnc3sccc3c2O)c2ccc(O)cc2)C(=O)N2C(C(=O)O)=C(CSc3nnnn3C)CSC21` (stereo not shown) [Example 29] was tested, and the MIC [1] was 12.5 µg/mL (≈ 18.3 µM), the MIC [2] was 12.5 µg/mL (≈ 18.3 µM) and the MIC [3] was 12.5 µg/mL (≈ 18.3 µM). It also gave an MIC [4] of 6.25 µg/mL (≈ 9.13 µM) and an MIC [5] of 0.78 µg/mL (≈ 1.14 µM).

Work on `CO[C@@]1(NC(=O)[C@H](NC(=O)c2cnc3cccnc3c2O)c2ccccc2)C(=O)N2C(C(=O)[O-])=C(C[n+]3ccccc3)CS[C@@H]21` [Example 4, 3-Pyridiniummethyl-7α-methoxy-7β-[D-2-(4-hydroxy-1,5-naphthyridine-3-carbonamido)-2-phenylacetamido]-3-cephem-4-carboxylate] yielded an MIC [1] of 25 µg/mL (≈ 39.9 µM), an MIC [2] of 3.13 µg/mL (≈ 4.99 µM) and an MIC [3] of 12.5 µg/mL (≈ 19.9 µM). It also gave an MIC [4] of 6.25 µg/mL (≈ 9.97 µM) and an MIC [5] of 0.78 µg/mL (≈ 1.24 µM).

Work on `CO[C@@]1(NC(=O)C(NC(=O)c2cncnc2O)c2ccccc2)C(=O)N2C(C(=O)O)=C(COC(N)=O)CS[C@@H]21` (stereo partly shown) [Example 11] yielded an MIC [1] of 100 µg/mL (≈ 179 µM), an MIC [2] of 12.5 µg/mL (≈ 22.4 µM) and an MIC [3] of 50 µg/mL (≈ 89.5 µM). It also gave an MIC [4] of 12.5 µg/mL (≈ 22.4 µM) and an MIC [5] of 0.78 µg/mL (≈ 1.4 µM).

With `COc1nc(OC)c2c(O)c(C(=O)NC(C(=O)NC3(OC)C(=O)N4C(C(=O)O)=C(CSc5nncs5)CSC43)c3ccc(O)cc3)cnc2n1` (stereo not shown) [Example 43] the MIC [1] was 50 µg/mL (≈ 67.3 µM), the MIC [2] was 12.5 µg/mL (≈ 16.8 µM) and the MIC [3] was 25 µg/mL (≈ 33.7 µM). For the same compound, the MIC [4] was 12.5 µg/mL (≈ 16.8 µM) and the MIC [5] was 1.56 µg/mL (≈ 2.1 µM).

`CO[C@@]1(NC(=O)C(NC(=O)c2ccnnc2O)c2ccc(O)cc2)C(=O)N2C(C(=O)O)=C(CSc3n[nH]c(=S)s3)CS[C@@H]21` (stereo partly shown) [Example 14] gave an MIC [1] of 100 µg/mL (≈ 151 µM), an MIC [2] of 12.5 µg/mL (≈ 18.8 µM) and an MIC [3] of 25 µg/mL (≈ 37.7 µM). For the same compound, the MIC [4] was 25 µg/mL (≈ 37.7 µM) and the MIC [5] was 1.56 µg/mL (≈ 2.35 µM).
